From US5872097A, “Oligopeptides with affinity to opioid receptors” (Pharmacia & Upjohn Aktiebolag, priority 1992, dated 1999)
Bridge positions count the residues as written; N and C are the ends. Square brackets hold non-standard residues; d marks the D form. Ends that are not written are not given here. Peptide text beside a SMILES is read from it. Dab = NCC[C@H](N)C(=O)O

Legend:
μ-receptor = molecular target: T1, μ-receptor (Rattus norvegicus, UniProt P33535); assay: (3H)-DAMGO displacement receptor assay; format: binding; conditions: LIGAND program; for IC50: displacement of (3H)-DAMGO specific binding, radioligand about 24 x 10^-10 M
T1 construct: from tissue; host or cells: rat brain (homogenate / synaptic plasma membranes, whole brain without cerebellum)
T1 sequence (P33535 whole entry): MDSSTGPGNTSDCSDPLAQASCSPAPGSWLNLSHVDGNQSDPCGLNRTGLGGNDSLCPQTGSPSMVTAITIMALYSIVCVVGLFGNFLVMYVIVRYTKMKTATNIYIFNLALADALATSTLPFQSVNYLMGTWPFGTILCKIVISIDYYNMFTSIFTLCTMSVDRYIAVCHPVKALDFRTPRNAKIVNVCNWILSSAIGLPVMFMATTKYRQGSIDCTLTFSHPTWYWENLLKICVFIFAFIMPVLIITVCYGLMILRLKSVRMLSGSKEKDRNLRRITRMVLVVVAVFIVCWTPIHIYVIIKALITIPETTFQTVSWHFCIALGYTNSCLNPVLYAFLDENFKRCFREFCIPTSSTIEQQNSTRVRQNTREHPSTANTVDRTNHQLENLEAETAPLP
Experimental: (§1) In the experiments noted in FIGS. 3 and 4 and in Table 1 (^3 H)-(D-Ala^2,MePhe^4,Gly-ol^5)-enkephalin (DAGO or DAMGO) and (^3 H)-(D-Ala^2,D-Leu^5)-enkephalin (DADL) purchased from Amersham (Buckinghamshire, England) were used as radioligands in a binding assay performed as in Reg.
(§2) The peptides were employed for both receptor tests and bioassays on electrically stimulated guinea pig ileum strips (GPI-tests). The receptor assays were performed in the same manner as above with DAMGO as a radioligand to the μ-receptor. In the assays (^3 H)-DAMGO specific binding was displaced by the different tested substances (10^-5 M to 10^-10 M). […] Ups. […] The magnitude of activity in relation to a standard compound, normorphine was recorded.

[1] = molecular target: T2, δ-receptor ((3H)-DADL binding site) (Rattus norvegicus, UniProt P33533); assay: (3H)-DADL binding assay, rat brain homogenates; conditions: duplicate determination, one site model, EBDA/LIGAND
T2 construct: from tissue; host or cells: rat brain homogenate
T2 sequence (P33533 whole entry): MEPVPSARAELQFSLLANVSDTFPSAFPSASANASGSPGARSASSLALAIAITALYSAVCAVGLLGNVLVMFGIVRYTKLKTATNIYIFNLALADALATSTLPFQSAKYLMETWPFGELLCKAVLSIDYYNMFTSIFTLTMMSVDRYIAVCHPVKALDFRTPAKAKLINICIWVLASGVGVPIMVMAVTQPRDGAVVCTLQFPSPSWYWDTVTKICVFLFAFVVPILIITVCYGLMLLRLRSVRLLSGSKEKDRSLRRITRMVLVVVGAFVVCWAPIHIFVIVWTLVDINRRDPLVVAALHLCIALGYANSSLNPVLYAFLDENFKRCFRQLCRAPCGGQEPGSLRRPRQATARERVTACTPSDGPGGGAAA
Description: as §1
(§3) In the publication β-Casomorphins and Related Peptides Ed.

[2] = molecular target: T3, μ-receptor ((3H)-DAGO binding site) (Rattus norvegicus, UniProt P33535); assay: (3H)-DAGO binding assay, rat brain homogenates; conditions: duplicate determination, one site model, EBDA/LIGAND
T3 construct: from tissue; host or cells: rat brain (homogenate / synaptic plasma membranes, whole brain without cerebellum)
T3 sequence (P33535 whole entry): as the sequence (P33535 whole entry) above
Description: as §1, §3

[3] = tested on: electrically stimulated guinea pig ileum strips; conditions: relative to standard compound normorphine = 1
Experimental: as §2

CC(C)C[C@@H]1NC(=O)[C@H](Cc2ccccc2)NC(=O)[C@@H](NC(=O)[C@@H](N)Cc2ccc(O)cc2)CSSC[C@@H](C(=O)O)NC1=O (H-YCFLC-OH; disulfide 2-5)
IC50 (μ-receptor): 0.24 nM

CC(C)C[C@@H]1NC(=O)[C@H](Cc2ccccc2)NC(=O)[C@@H](NC(=O)[C@@H](N)Cc2ccc(O)cc2)CCCCNC(=O)[C@H](CCC(=O)O)NC1=O (H-YKFLE; lactam 2-C)
IC50 (μ-receptor): 0.055 nM

CC(C)C[C@@H]1NC(=O)[C@H](Cc2ccccc2)NC(=O)[C@@H](NC(=O)[C@@H](N)Cc2ccc(O)cc2)CCNC(=O)[C@H](CCC(=O)O)NC1=O (H-Y[Dab]FLE; lactam 2-C (inferred); N-terminus assumed)
Bmax (binding capacity) (μ-receptor; (3H)-DAMGO binding): 18.6 pmol

CC(C)C[C@H](NC(=O)[C@H](CC(C)C)NC(=O)CNC(=O)[C@@H](N)Cc1ccc(O)cc1)C(=O)O [Tyr--Gly--Leu--Leu, Tyr-Gly-Leu-Leu] (H-YGLL-OH)
Ki [1]: 24000 nM
Ki [2]: 32000 nM

CC(C)C[C@H](NC(=O)[C@H](Cc1ccccc1)NC(=O)[C@@H](C)NC(=O)[C@@H](N)Cc1ccc(O)cc1)C(=O)N[C@@H](CCC(=O)O)C(=O)O [Tyr-D-Ala-Phe-Leu-Glu] (H-Y[dA]FLE-OH)
IC50 (μ-receptor): 0.048 nM
GPI-test relative activity normorphine = 1 [3]: 0.01

CC(C)C[C@H](NC(=O)[C@H](Cc1ccccc1)NC(=O)[C@@H](C)NC(=O)[C@@H](N)Cc1ccc(O)cc1)C(N)=O [Tyr-D-Ala-Phe-Leu-NH2, reference compound] (H-Y[dA]FL-NH2)
IC50 (μ-receptor): 0.1 nM
GPI-test relative activity normorphine = 1 [3]: 0.3

CSCC[C@H](NC(=O)[C@H](Cc1ccccc1)NC(=O)[C@@H](C)NC(=O)[C@@H](N)Cc1ccc(O)cc1)C(N)=O [Tyr-D-Ala-Phe-Met-NH2, reference compound] (H-Y[dA]FM-NH2)
IC50 (μ-receptor): 0.15 nM
GPI-test relative activity normorphine = 1 [3]: 0.5

YPFLE [Tyr-Pro-Phe-Leu-Glu]
IC50 (μ-receptor): 0.024 nM
GPI-test relative activity normorphine = 1 [3]: 0.01

YPFVE [Tyr--Pro--Phe--Val--Glu, Tyr-Pro-Phe-Val-Glu, reference compound]
Ki [2]: 8900 nM

YSFLE-NH2 [Tyr-Ser-Phe-Leu-Glu-NH2]
IC50 (μ-receptor): 2.6 nM
